The compounds below were run on organophosphorous agent resistant two-spotted spider mites (assay: Effect on Two-spotted Spider Mite (spray on kidney bean leaves)). Details: 125 ppm, water dispersible powder of Formulation Example 1 sprayed, 17 female adults, 25° C., 65% humidity, 3 days.
Type: in vivo
Excerpt: Effect on Two-spotted Spider Mite
17 female adults of organophosphorous agent resistant two-spotted spider mites were inoculated onto the first leaves of kidney beans seeded onto 3.5 inch pots and germinated 7 to 10 days before, onto which each of liquid agents, diluted with water so as to adjust the respective concentration of the chemical compounds to 125 ppm according to the formulation of the water dispersible powder shown in the aforementioned Formulation Example 1, was sprayed. After they were left in a thermostatic chamber at 25° C. in 65% humidity for 3 days, the rate of killed adults was investigated. The examination was repeated twice. As the results, the following chemical compounds killed 100% of the adults.

Row | Structure (SMILES) | rate of killed adults [%]
1 | CC(C)OC(=O)c1cc(C(F)(F)F)ccc1OC1CC2CCC(C1)N2c1ccc(C(F)(F)F)cn1 (centres unmarked) [2-196] | 100
2 | FC(F)(F)c1ccc(N2C3CCC2CC(Oc2ccc(C(F)(F)F)cc2OCC2CC2)C3)nc1 (centres unmarked) [2-105] | 100
3 | CC(C)COc1cc(C(F)(F)F)ccc1OC1CC2CCC(C1)N2c1ccc(C(F)(F)F)cn1 (centres unmarked) [2-98] | 100
4 | CCCCOCc1cc(C(F)(F)F)ccc1OC1C2CCC1CN(c1ccc(C(F)(F)F)cn1)C2 (centres unmarked) [5-223] | 100
5 | CCOC(=O)c1cc(C(F)(F)F)ccc1OC1CC2CCC(C1)N2c1ccc(C(F)(F)F)cn1 (centres unmarked) [2-193] | 100
6 | CCCC(=O)Oc1cc(C(F)(F)F)ccc1OC1C2CCC1CN(c1ccc(C(F)(F)F)cn1)C2 (centres unmarked) [5-199] | 100
7 | FC(F)(F)c1ccc(N2CC3CCC(C2)C3Oc2ccc(C(F)(F)F)cc2OCc2ccccn2)nc1 (centres unmarked) [5-212] | 100
8 | FC(F)(F)c1ccc(O[C@@H]2[C@@H]3CC[C@H]2CN(c2ccc(C(F)(F)F)cn2)C3)cc1 [5-264] | 100
9 | Cc1noc(-c2cc(C(F)(F)F)ccc2OC2CC3CCC(C2)N3c2ccc(C(F)(F)F)cn2)n1 (centres unmarked) [2-200] | 100
10 | FC(F)(F)c1ccc(N2CCC(Oc3ccc(C(F)(F)F)cc3COC3CCCO3)CC2)nc1 (centres unmarked) [1-180] | 100
11 | COc1cc(C(F)(F)F)ccc1O[C@@H]1[C@@H]2CC[C@H]1CN(c1ccc(C(F)(F)F)cn1)C2 [5-89] | 100
12 | CC=CCOc1cc(C(F)(F)F)ccc1OC1CC2CCC(C1)N2c1ccc(C(F)(F)F)cn1 (mixture of isomers) [2-145] | 100
13 | CCC(=O)c1cc(C(F)(F)F)ccc1OC1CCN(c2ccc(C(F)(F)F)cn2)CC1 [1-179] | 100
14 | COCCOc1cc(C(F)(F)F)ccc1O[C@@H]1[C@@H]2CC[C@H]1CN(c1ccc(C#N)cn1)C2 [5-125] | 100
15 | CCOc1cc(C(F)(F)F)ccc1OC1CC2CCC(C1)N2c1ccc(C(F)(F)F)cn1 (centres unmarked) [2-78] | 100
16 | CCCOc1cc(C#N)ccc1O[C@@H]1[C@@H]2CC[C@H]1CN(c1ccc(C(F)(F)F)cn1)C2 [5-102] | 100
17 | COCCCc1cc(C(F)(F)F)ccc1OC1CC2CCC(C1)N2c1ccc(C(F)(F)F)cn1 (centres unmarked) [2-190] | 100
18 | CC(C)Oc1cc(C(F)(F)F)ccc1OC1CC2CCC(C1)N2c1ccc(C(F)(F)F)cn1 (centres unmarked) [2-96] | 100
19 | FC(F)(F)c1ccc(N2CC3CCC(C2)C3Oc2ccc(C(F)(F)F)cc2OCc2cccs2)nc1 (centres unmarked) [5-209] | 100
20 | C=CC(C)OC(=O)c1cc(C(F)(F)F)ccc1OC1CC2CCC(C1)N2c1ccc(C(F)(F)F)cn1 (centres unmarked) [2-235] | 100
21 | FC(F)(F)c1ccc(N2CCC(Oc3ccc(Cl)cc3)CC2)nc1 [1-10] | 100
22 | FC(F)(F)c1ccc(N2C[C@H]3CC[C@@H](C2)[C@@H]3Oc2ccc(C(F)(F)F)cc2OC2CC2(Cl)Cl)nc1 (some centres unmarked) [5-104] | 100

Row | Structure (SMILES) | rate of killed adults [%]
23 | CS(=O)(=O)Oc1cc(C(F)(F)F)ccc1OC1C2CCC1CN(c1ccc(C(F)(F)F)cn1)C2 (centres unmarked) [5-161] | 100
24 | FC(F)(F)c1ccc(N2C3CCC2CC(Oc2ccc(C(F)(F)F)cc2OCC=CCl)C3)nc1 (mixture of isomers) [2-148] | 100
25 | CCOC(C)COc1cc(C(F)(F)F)ccc1OC1CC2CCC(C1)N2c1ccc(C(F)(F)F)cn1 (centres unmarked) [2-175] | 100
26 | C=CCOc1cc(C(F)(F)F)ccc1OC1CC2CCC(C1)N2c1ccc(C(F)(F)F)cn1 (centres unmarked) [2-141] | 100
27 | Cc1ccc(OC2CCN(c3ccc(C(F)(F)F)cn3)CC2)c(C)c1 [1-44] | 100
28 | CS(=O)(=O)Oc1cc(C(F)(F)F)ccc1OC1CC2CCC(C1)N2c1ccc(C(F)(F)F)cn1 (centres unmarked) [2-151] | 100
29 | COC(C)COc1cc(C(F)(F)F)ccc1OC1CC2CCC(C1)N2c1ccc(C(F)(F)F)cn1 (centres unmarked) [2-130] | 100
30 | CCCOc1cc(C(F)(F)F)ccc1O[C@H]1C[C@H]2CC[C@@H](C1)N2c1ccc(C(F)(F)F)cn1 [2-82, 3α-[2-propoxy-4-(trifluoromethyl)phenoxy]-8-[5-(trifluoromethyl)-2-pyridyl]-8-azabicyclo[3.2.1]octane] | 100
31 | CC(=O)OC(CC(C)C)c1cc(C(F)(F)F)ccc1O[C@@H]1[C@@H]2CC[C@H]1CN(c1ccc(C(F)(F)F)cn1)C2 (some centres unmarked) [5-258] | 100
32 | FC(F)(F)c1ccc(N2CC3CCC(C2)C3Oc2ccc(C(F)(F)F)cc2COC2CCOC2)nc1 (centres unmarked) [5-231] | 100
33 | COC=Cc1cc(C(F)(F)F)ccc1O[C@@H]1[C@@H]2CC[C@H]1CN(c1ccc(C(F)(F)F)cn1)C2 [5-247] | 100
34 | CCCOCc1cc(C(F)(F)F)ccc1OC1CC2CCC(C1)N2c1ccc(C(F)(F)F)cn1 (centres unmarked) [2-171] | 100
35 | CCCCC(O)c1cc(C(F)(F)F)ccc1OC1C2CCC1CN(c1ccc(C(F)(F)F)cn1)C2 (centres unmarked) [5-238] | 100
36 | CC1CN=C(c2cc(C(F)(F)F)ccc2OC2CC3CCC(C2)N3c2ccc(C(F)(F)F)cn2)O1 (centres unmarked) [2-201] | 100
37 | COCCOc1cc(C(F)(F)F)ccc1OC1CC2CCC(C1)N2c1ccc(C(F)(F)F)cn1 (centres unmarked) [2-112] | 100
38 | COC(C)(C)COc1cc(C(F)(F)F)ccc1OC1C2CCC1CN(c1ccc(C(F)(F)F)cn1)C2 (centres unmarked) [5-130] | 100
39 | CCCOC(=O)c1cc(C(F)(F)F)ccc1O[C@@H]1[C@@H]2CC[C@H]1CN(c1ccc(C(F)(F)F)cn1)C2 [5-244] | 100
40 | FC(F)(F)c1ccc(N2C3CCC2CC(Oc2ccc(C(F)(F)F)cc2C2OCCO2)C3)nc1 (stereo not drawn) [2-169, 3α-{2-([1,3]dioxolane-yl)-4-(trifluoromethyl)phenoxy}-8-[5-(trifluoromethyl)-2-pyridyl]-8-azabicyclo[3.2.1]octane] | 100
41 | FC(F)(F)c1ccc(N2C3CCC2CC(Oc2ccc(C(F)(F)F)cc2OCCCl)C3)nc1 (centres unmarked) [2-138] | 100
42 | CCCSc1cc(C(F)(F)F)ccc1OC1CC2CCC(C1)N2c1ccc(C(F)(F)F)cn1 (centres unmarked) [2-165] | 100
43 | FC(F)(F)c1ccc(N2CC3CCC(C2)C3Oc2ccc(C(F)(F)F)cc2OCCCl)nc1 (centres unmarked) [5-147] | 100
44 | C=CCCOc1cc(C(F)(F)F)ccc1OC1C2CCC1CN(c1ccc(C(F)(F)F)cn1)C2 (centres unmarked) [5-176] | 100

Row | Structure (SMILES) | rate of killed adults [%]
45 | FC(F)(F)c1ccc(N2CCC(Oc3cccc(C(F)(F)F)c3)CC2)nc1 [1-76] | 100
46 | FC(F)(F)c1ccc(N2[C@@H]3CC[C@H]2C[C@@H](Oc2ccc(C(F)(F)F)cc2SCC2CC2)C3)nc1 [2-166] | 100
47 | FC(F)(F)c1ccc(N2CC3CCC(C2)C3Oc2ccc(C(F)(F)F)cc2OCc2ccoc2)nc1 (centres unmarked) [5-207] | 100
48 | OCCOc1cc(C(F)(F)F)ccc1OC1CC2CCC(C1)N2c1ccc(C(F)(F)F)cn1 (centres unmarked) [2-115] | 100
49 | CCC(Cl)c1cc(C(F)(F)F)ccc1OC1CCN(c2ccc(C(F)(F)F)cn2)CC1 (centres unmarked) [1-82] | 100
50 | CC(C)=NOc1cc(C(F)(F)F)ccc1OC1CC2CCC(C1)N2c1ccc(C(F)(F)F)cn1 (stereo not drawn) [2-212, 3α-[2-isopropylideneaminoxy-4-(trifluoromethyl)phenoxy]-8-[5-(trifluoromethyl)-2-pyridyl]-8-azabicyclo[3.2.1]octane] | 100
51 | CC(COc1cc(C(F)(F)F)ccc1OC1C2CCC1CN(c1ccc(C(F)(F)F)cn1)C2)=NO (centres unmarked) [5-183] | 100
52 | CC(C)(C)C(=O)Oc1cc(C(F)(F)F)ccc1OC1CC2CCC(C1)N2c1ccc(C(F)(F)F)cn1 (centres unmarked) [2-150] | 100
53 | COCC(C)Oc1cc(C(F)(F)F)ccc1OC1CC2CCC(C1)N2c1ccc(C(F)(F)F)cn1 (centres unmarked) [2-178] | 100
54 | C#CCOc1cc(C(F)(F)F)ccc1OC1CC2CCC(C1)N2c1ccc(C(F)(F)F)cn1 (centres unmarked) [2-143] | 100
55 | CC(C)S(=O)(=O)Oc1cc(C(F)(F)F)ccc1OC1C2CCC1CN(c1ccc(C(F)(F)F)cn1)C2 (centres unmarked) [5-164] | 100
56 | CCCNc1cc(C(F)(F)F)ccc1OC1CCN(c2ccc(C(F)(F)F)cn2)CC1 [1-173] | 100
57 | OCCOc1cc(C(F)(F)F)ccc1OC1CCN(c2ccc(C(F)(F)F)cn2)CC1 [1-118] | 100
58 | CCCNc1cc(C(F)(F)F)ccc1OC1CC2CCC(C1)N2c1ccc(C(F)(F)F)cn1 (centres unmarked) [2-160] | 100
59 | CCCOc1cc(C(F)(F)F)ccc1OC1CC2CCC(C1)N2c1ccc(Br)cn1 (centres unmarked) [2-86] | 100
60 | CCS(=O)(=O)Oc1cc(C(F)(F)F)ccc1OC1CC2CCC(C1)N2c1ccc(C(F)(F)F)cn1 (centres unmarked) [2-152] | 100
61 | CC(C)=COc1cc(C(F)(F)F)ccc1O[C@H]1C[C@H]2CC[C@@H](C1)N2c1ccc(C(F)(F)F)cn1 [2-245, 3α-[2-(2-methylpropenyloxy)-4-(trifluoromethyl)phenoxy]-8-[5-(trifluoromethyl)-2-pyridyl]-8-azabicyclo[3.2.1]octane] | 100
62 | CC(C)(C)COc1cc(C(F)(F)F)ccc1OC1CC2CCC(C1)N2c1ccc(C(F)(F)F)cn1 (centres unmarked) [2-111] | 100
63 | [O-][S+](c1ccc(OC2CCN(c3ccc(C(F)(F)F)cn3)CC2)cc1)C(F)(F)F (centres unmarked) [1-150] | 100
64 | CCCOc1cc(C(F)(F)F)ccc1O[C@@H]1[C@@H]2CC[C@H]1CN(c1ccc(C(F)F)cn1)C2 [5-99] | 100
65 | CC(=O)OC(C)COc1cc(C(F)(F)F)ccc1O[C@@H]1[C@@H]2CC[C@H]1CN(c1ccc(C(F)(F)F)cn1)C2 (some centres unmarked) [5-114] | 100
